PMC5356695, “A phase 1 study of oral ridaforolimus in pediatric patients with advanced solid tumors” (Oncotarget, 2016)
Like-named read-outs stand apart in the source and are kept apart here.

System: pediatric patients with advanced solid tumors
Conditions: for Leukopenia (treatment-related AE): laboratory values only
Protocol: This phase 1, multicenter, open-label study was conducted at a total of 8 study sites (3 study sites in the United States and 5 Innovative Therapies for Children with Cancer [ITCC] Consortium centers [2 in the United Kingdom and 3 in France]) between January 31, 2012, and the data cutoff, January 14, 2014 (ClinicalTrials.gov identifier NCT01431534; European Clinical Trials Database [EudraCT] number 2011-000729-55). An enteric-coated tablet formulation of ridaforolimus was orally administered for 5 consecutive days and not administered for 2 consecutive days per week in 28-day cycles until progression, unacceptable toxicity, or consent withdrawal. […] Dose escalation was conducted by using a modified toxicity probability intervals method that targeted a 30% DLT rate and started at 22 mg/m^2 (the equivalent of the adult RP2D [27], a 40-mg dose in adults with a BSA of 1.8 m^2). […] Dosing was adjusted based on BSA and rounded to the nearest 10-mg tablet. Patients were to be treated at sequentially rising dose levels until a preliminary MTD was identified.
Toxicity was graded according to the National Cancer Institute Common Terminology Criteria for Adverse Events, version 4.0 [42]. Safety data were reported for all patients who received at least 1 dose of the study drug. […] Once the RP2D of ridaforolimus was defined, an expansion cohort to be treated at the RP2D was planned to obtain additional safety, tolerability, and pharmacokinetic data.

With CO[C@H]1C[C@@H]2CC[C@@H](C)[C@@](O)(O2)C(=O)C(=O)N2CCCC[C@H]2C(=O)O[C@H]([C@H](C)C[C@@H]2CC[C@@H](OP(C)(C)=O)[C@H](OC)C2)CC(=O)[C@H](C)/C=C(\C)[C@@H](O)[C@@H](OC)C(=O)[C@H](C)C[C@H](C)/C=C/C=C/C=C/1C [ridaforolimus] the “Patients with serious adverse events related to study treatment” value (22 mg/m^2, grade 3 oral herpes) was 1 patient, the “Stomatitis (treatment-related AE)” value (22 mg/m^2 n = 4, any grade) was 2 (50) n (%) and the “Thrombocytopenia (treatment-related AE)” value (22 mg/m^2 n = 4, any grade) was 2 (50) n (%). For the same compound, the “Vomiting (treatment-related AE)” value (22 mg/m^2 n = 4, any grade) was 1 (25) n (%), the “Leukopenia (treatment-related AE)” value (22 mg/m^2 n = 4, any grade) was 1 (25) n (%) and the “Anemia (treatment-related AE)” value (22 mg/m^2 n = 4, grades 3–4) was 0 n (%). For the same compound, the “Decreased appetite (treatment-related AE)” value (“Decreased appetite” for short) (22 mg/m^2 n = 4, grades 3–4) was 0 n (%), the “Decreased weight (treatment-related AE)” value (22 mg/m^2 n = 4, grades 3–4) was 0 n (%) and the “Diarrhea (treatment-related AE)” value (22 mg/m^2 n = 4, grades 3–4) was 0 n (%). For the same compound, the “Dry mouth (treatment-related AE)” value (22 mg/m^2 n = 4, grades 3–4) was 0 n (%), the “Dysgeusia (treatment-related AE)” value (22 mg/m^2 n = 4, grades 3–4) was 0 n (%) and the “Epistaxis (treatment-related AE)” value (22 mg/m^2 n = 4, grades 3–4) was 0 n (%). For the same compound, the “Fatigue (treatment-related AE)” value (22 mg/m^2 n = 4, grades 3–4) was 0 n (%), the “Headache (treatment-related AE)” value (22 mg/m^2 n = 4, grades 3–4) was 0 n (%) and the “Hypercholesterolemia (treatment-related AE)” value (“Hypercholesterolemia” for short) (22 mg/m^2 n = 4, grades 3–4) was 0 n (%). For the same compound, the “Hyperglycemia (treatment-related AE)” value (22 mg/m^2 n = 4, grades 3–4) was 0 n (%), the “Hypertriglyceridemia (treatment-related AE)” value (shortened to “Hypertriglyceridemia”) (22 mg/m^2 n = 4, grades 3–4) was 0 n (%) and the “Hypocalcemia (treatment-related AE)” value (22 mg/m^2 n = 4, grades 3–4) was 0 n (%). For the same compound, the “Hypokalemia (treatment-related AE)” value (22 mg/m^2 n = 4, grades 3–4) was 0 n (%), the “Hypophosphatemia (treatment-related AE)” value (22 mg/m^2 n = 4, grades 3–4) was 1 (25) n (%) and the “Increased ALT (treatment-related AE)” value (22 mg/m^2 n = 4, grades 3–4) was 1 (25) n (%). The “Increased AST (treatment-related AE)” value (22 mg/m^2 n = 4, grades 3–4) was 0 n (%), the “Increased alkaline phosphatase (treatment-related AE)” value (22 mg/m^2 n = 4, grades 3–4) was 0 n (%) and the “Increased bilirubin (treatment-related AE)” value (22 mg/m^2 n = 4, grades 3–4) was 0 n (%). The “Increased γ-glutamyltransferase (treatment-related AE)” value (22 mg/m^2 n = 4, grades 3–4) was 0 n (%), the “Lymphopenia (treatment-related AE)” value (22 mg/m^2 n = 4, grades 3–4) was 0 n (%) and the “Nausea (treatment-related AE)” value (22 mg/m^2 n = 4, grades 3–4) was 0 n (%). The “Neutropenia (treatment-related AE)” value (22 mg/m^2 n = 4, grades 3–4) was 0 n (%), the “Oral herpes (treatment-related AE)” value (22 mg/m^2 n = 4, grades 3–4) was 1 (25) n (%) and the “Patients with ≥1 treatment-related adverse event” value (22 mg/m^2 n = 4, grades 3–4) was 2 (50) n (%). The “Photophobia (treatment-related AE)” value (22 mg/m^2 n = 4, grades 3–4) was 0 n (%), the “Rash (treatment-related AE)” value (22 mg/m^2 n = 4, grades 3–4) was 0 n (%) and the “Stomatitis (treatment-related AE)” value (22 mg/m^2 n = 4, grades 3–4) was 0 n (%). For the same compound, the “Thrombocytopenia (treatment-related AE)” value (22 mg/m^2 n = 4, grades 3–4) was 0 n (%), the “Vomiting (treatment-related AE)” value (22 mg/m^2 n = 4, grades 3–4) was 0 n (%) and the “Leukopenia (treatment-related AE)” value (22 mg/m^2 n = 4, grades 3–4) was 0 n (%). The “Stomatitis (treatment-related AE)” value (28 mg/m^2 n = 3, any grade) was 3 (100) n (%), the “Thrombocytopenia (treatment-related AE)” value (28 mg/m^2 n = 3, any grade) was 1 (33) n (%) and the “Vomiting (treatment-related AE)” value (28 mg/m^2 n = 3, any grade) was 0 n (%). For the same compound, the “Leukopenia (treatment-related AE)” value (28 mg/m^2 n = 3, any grade) was 2 (67) n (%), the “Anemia (treatment-related AE)” value (28 mg/m^2 n = 3, grades 3–4) was 0 n (%) and the “Decreased appetite” value (28 mg/m^2 n = 3, grades 3–4) was 0 n (%). The “Decreased weight (treatment-related AE)” value (28 mg/m^2 n = 3, grades 3–4) was 0 n (%), the “Diarrhea (treatment-related AE)” value (28 mg/m^2 n = 3, grades 3–4) was 0 n (%) and the “Dry mouth (treatment-related AE)” value (28 mg/m^2 n = 3, grades 3–4) was 0 n (%). For the same compound, the “Dysgeusia (treatment-related AE)” value (28 mg/m^2 n = 3, grades 3–4) was 0 n (%), the “Epistaxis (treatment-related AE)” value (28 mg/m^2 n = 3, grades 3–4) was 0 n (%) and the “Fatigue (treatment-related AE)” value (28 mg/m^2 n = 3, grades 3–4) was 0 n (%). The “Headache (treatment-related AE)” value (28 mg/m^2 n = 3, grades 3–4) was 0 n (%), the “Hypercholesterolemia” value (28 mg/m^2 n = 3, grades 3–4) was 1 (33) n (%) and the “Hyperglycemia (treatment-related AE)” value (28 mg/m^2 n = 3, grades 3–4) was 0 n (%). For the same compound, the “Hypertriglyceridemia” value (28 mg/m^2 n = 3, grades 3–4) was 0 n (%), the “Hypocalcemia (treatment-related AE)” value (28 mg/m^2 n = 3, grades 3–4) was 0 n (%) and the “Hypokalemia (treatment-related AE)” value (28 mg/m^2 n = 3, grades 3–4) was 0 n (%). For the same compound, the “Hypophosphatemia (treatment-related AE)” value (28 mg/m^2 n = 3, grades 3–4) was 0 n (%), the “Increased ALT (treatment-related AE)” value (28 mg/m^2 n = 3, grades 3–4) was 1 (33) n (%) and the “Increased AST (treatment-related AE)” value (28 mg/m^2 n = 3, grades 3–4) was 0 n (%). The “Increased alkaline phosphatase (treatment-related AE)” value (28 mg/m^2 n = 3, grades 3–4) was 0 n (%), the “Increased bilirubin (treatment-related AE)” value (28 mg/m^2 n = 3, grades 3–4) was 0 n (%) and the “Increased γ-glutamyltransferase (treatment-related AE)” value (28 mg/m^2 n = 3, grades 3–4) was 0 n (%). The “Lymphopenia (treatment-related AE)” value (28 mg/m^2 n = 3, grades 3–4) was 0 n (%), the “Nausea (treatment-related AE)” value (28 mg/m^2 n = 3, grades 3–4) was 0 n (%) and the “Neutropenia (treatment-related AE)” value (28 mg/m^2 n = 3, grades 3–4) was 0 n (%). The “Oral herpes (treatment-related AE)” value (28 mg/m^2 n = 3, grades 3–4) was 0 n (%), the “Patients with ≥1 treatment-related adverse event” value (28 mg/m^2 n = 3, grades 3–4) was 2 (67) n (%) and the “Photophobia (treatment-related AE)” value (28 mg/m^2 n = 3, grades 3–4) was 0 n (%). For the same compound, the “Rash (treatment-related AE)” value (28 mg/m^2 n = 3, grades 3–4) was 0 n (%), the “Stomatitis (treatment-related AE)” value (28 mg/m^2 n = 3, grades 3–4) was 0 n (%) and the “Thrombocytopenia (treatment-related AE)” value (28 mg/m^2 n = 3, grades 3–4) was 1 (33) n (%). The “Vomiting (treatment-related AE)” value (28 mg/m^2 n = 3, grades 3–4) was 0 n (%), the “Leukopenia (treatment-related AE)” value (28 mg/m^2 n = 3, grades 3–4) was 0 n (%) and the “Patients discontinued due to an adverse event (grade 5 gastric perforation related to underlying disease)” value (33 mg/m^2 (n = 13), 8%) was 1 patients. For the same compound, the “Patients with DLT (grade 3 increased ALT)” value (33 mg/m^2, 18 patients evaluable for DLTs overall) was 1 patient, the “Patients with serious adverse events related to study treatment” value (33 mg/m^2, grade 2 rectal pain, grade 2 seizure) was 2 patients and the “Stomatitis (treatment-related AE)” value (33 mg/m^2 n = 13, any grade) was 10 (77) n (%). The “Thrombocytopenia (treatment-related AE)” value (33 mg/m^2 n = 13, any grade) was 10 (77) n (%), the “Vomiting (treatment-related AE)” value (33 mg/m^2 n = 13, any grade) was 2 (15) n (%) and the “Leukopenia (treatment-related AE)” value (33 mg/m^2 n = 13, any grade) was 4 (31) n (%). For the same compound, the “Anemia (treatment-related AE)” value (33 mg/m^2 n = 13, grades 3–4) was 0 n (%), the “Decreased appetite” value (33 mg/m^2 n = 13, grades 3–4) was 0 n (%) and the “Decreased weight (treatment-related AE)” value (33 mg/m^2 n = 13, grades 3–4) was 0 n (%). For the same compound, the “Diarrhea (treatment-related AE)” value (33 mg/m^2 n = 13, grades 3–4) was 0 n (%), the “Dry mouth (treatment-related AE)” value (33 mg/m^2 n = 13, grades 3–4) was 0 n (%) and the “Dysgeusia (treatment-related AE)” value (33 mg/m^2 n = 13, grades 3–4) was 0 n (%). For the same compound, the “Epistaxis (treatment-related AE)” value (33 mg/m^2 n = 13, grades 3–4) was 0 n (%), the “Fatigue (treatment-related AE)” value (33 mg/m^2 n = 13, grades 3–4) was 0 n (%) and the “Headache (treatment-related AE)” value (33 mg/m^2 n = 13, grades 3–4) was 0 n (%). The “Hypercholesterolemia” value (33 mg/m^2 n = 13, grades 3–4) was 0 n (%), the “Hyperglycemia (treatment-related AE)” value (33 mg/m^2 n = 13, grades 3–4) was 0 n (%) and the “Hypertriglyceridemia” value (33 mg/m^2 n = 13, grades 3–4) was 1 (8) n (%). For the same compound, the “Hypocalcemia (treatment-related AE)” value (33 mg/m^2 n = 13, grades 3–4) was 0 n (%), the “Hypokalemia (treatment-related AE)” value (33 mg/m^2 n = 13, grades 3–4) was 0 n (%) and the “Hypophosphatemia (treatment-related AE)” value (33 mg/m^2 n = 13, grades 3–4) was 0 n (%). For the same compound, the “Increased ALT (treatment-related AE)” value (33 mg/m^2 n = 13, grades 3–4) was 3 (23) n (%) and the “Increased AST (treatment-related AE)” value (33 mg/m^2 n = 13, grades 3–4) was 1 (8) n (%).
